System: Wnt/β-catenin cell signalling pathway (downstream target gene Axin2)
Assay: Axin2 expression (qPCR) in cells in medium conditioned with particles
Type: cell-based
Details: 25 mM LiCl, 17IA4 cells
Method: Biological activity of released lithium was measured by monitoring activation of Wnt/β-catenin cell signalling pathway by measuring the expression of the pathway's well-known downstream target gene Axin2. The experiment was done with cell medium conditioned with corresponding batch of nanoparticles. Known amounts of LipSi nanoparticles were pelleted with a centrifuge and sterile supernatant was removed. Nanoparticles were dried under tissue culture hood. Cell medium (αMEM supplemented with 10% FBS, 1% antibiotic/antimycotic solution and 25 mM HEPES) was added onto pellet and particles were redispersed with ultrasound. Concentrations of the particles were 0.8 mg/ml (FIG. 6a) and 1.6 mg/ml (FIG. 6b). Vials were incubated in thermoshaker at 37° C. for four days. Particles were centrifuged down and supernatant was collected under sterile conditions. Conditioned medium (supernatant) was filtered with 0.22 μm syringe filter.
20,000 cells/cm^2 of mesenchymal cells (17IA4) were seeded onto 24 well plate. Cells were incubated approximately for 24 hours until 80% confluent and the normal medium was changed to conditioned. Cells were incubated (37° C., 5% CO2) in conditioned medium for 24 h. […] Reported fold changes represent Axin2 expression in the sample compared to Axin2 expression in medium and they are calculated with ΔΔCt method as known in the art.

[Cl-].[Li+] [LiCl, lithium chloride]
increase of Axin2 expression compared to medium (experiment of FIG. 6a (with SS9)): 3.2 fold | increase of Axin2 expression compared to medium (experiment of FIG. 6b (with SS19)): 2.6 fold

Reference: patent publication US20230286816A1, “LITHIATED SILICON” (KING'S COLLEGE LONDON, priority 2020, published 2023)
